From patent publication US20210300940A1 (Merck Patent GmbH, priority 2018, published 2021)
Structures can show the parent of a compound that is named as a salt.

Key:
TLR7 = molecular target: T1, TLR7 (Homo sapiens, UniProt Q9NYK1); experiment: HEK/293 TLR7 Cell Assay; type: cell-based; settings: TLR7/NFKb HEK cells, R848 agonist 10 uM final concentration, Steady-Glo readout; read-out: TLR7 potency
T1 construct: expressed in transfected cells; host or cells: HEK/293 cells carrying TLR7 and an NF-kB luciferase reporter
T1 sequence (Q9NYK1 27-1049): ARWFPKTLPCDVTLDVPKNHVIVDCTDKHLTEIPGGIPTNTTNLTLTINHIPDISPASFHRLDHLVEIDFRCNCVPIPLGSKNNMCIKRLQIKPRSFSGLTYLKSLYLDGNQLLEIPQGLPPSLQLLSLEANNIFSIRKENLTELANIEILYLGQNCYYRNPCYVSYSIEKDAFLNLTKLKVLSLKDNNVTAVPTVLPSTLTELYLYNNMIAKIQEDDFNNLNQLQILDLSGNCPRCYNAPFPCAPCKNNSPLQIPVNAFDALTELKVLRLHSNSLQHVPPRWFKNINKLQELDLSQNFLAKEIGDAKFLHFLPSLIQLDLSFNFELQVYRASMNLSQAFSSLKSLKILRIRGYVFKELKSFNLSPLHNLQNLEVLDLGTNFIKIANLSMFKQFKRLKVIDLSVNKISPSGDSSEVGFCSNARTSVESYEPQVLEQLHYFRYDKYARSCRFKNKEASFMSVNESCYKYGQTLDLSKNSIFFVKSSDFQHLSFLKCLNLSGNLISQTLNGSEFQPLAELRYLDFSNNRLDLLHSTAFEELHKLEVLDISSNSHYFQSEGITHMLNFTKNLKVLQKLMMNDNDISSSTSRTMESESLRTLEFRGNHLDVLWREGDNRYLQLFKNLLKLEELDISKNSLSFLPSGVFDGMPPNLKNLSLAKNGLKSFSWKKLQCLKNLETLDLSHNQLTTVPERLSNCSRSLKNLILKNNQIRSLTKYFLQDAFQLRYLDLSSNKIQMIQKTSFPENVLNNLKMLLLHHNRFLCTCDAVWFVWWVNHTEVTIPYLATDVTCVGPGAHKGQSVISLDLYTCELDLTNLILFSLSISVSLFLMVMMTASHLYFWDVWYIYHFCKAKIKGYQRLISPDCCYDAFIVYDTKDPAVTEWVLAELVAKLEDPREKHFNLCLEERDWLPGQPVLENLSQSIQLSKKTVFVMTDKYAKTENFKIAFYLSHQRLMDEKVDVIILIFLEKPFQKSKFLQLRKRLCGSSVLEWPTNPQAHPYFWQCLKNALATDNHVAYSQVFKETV
Outline: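 TLR7/NF-κB reporter HEK293 cells, 5000/well, cultured 24 h, then preincubated 30 min with compound before R848 agonist (10 uM final). After 5 h stimulation, Steady-Glo luciferase luminescence read.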

TLR8 = molecular target: T2, TLR8 (Homo sapiens, UniProt Q9NR97); experiment: HEK/293 TLR8 Cell Assay; type: cell-based; settings: HEK cells, R848 agonist 30 uM final concentration, Steady-Glo readout; read-out: TLR8 potency
T2 construct: expressed in transfected cells; host or cells: HEK/293 reporter cells (NF-kB luciferase)
T2 sequence (Q9NR97 27-1041): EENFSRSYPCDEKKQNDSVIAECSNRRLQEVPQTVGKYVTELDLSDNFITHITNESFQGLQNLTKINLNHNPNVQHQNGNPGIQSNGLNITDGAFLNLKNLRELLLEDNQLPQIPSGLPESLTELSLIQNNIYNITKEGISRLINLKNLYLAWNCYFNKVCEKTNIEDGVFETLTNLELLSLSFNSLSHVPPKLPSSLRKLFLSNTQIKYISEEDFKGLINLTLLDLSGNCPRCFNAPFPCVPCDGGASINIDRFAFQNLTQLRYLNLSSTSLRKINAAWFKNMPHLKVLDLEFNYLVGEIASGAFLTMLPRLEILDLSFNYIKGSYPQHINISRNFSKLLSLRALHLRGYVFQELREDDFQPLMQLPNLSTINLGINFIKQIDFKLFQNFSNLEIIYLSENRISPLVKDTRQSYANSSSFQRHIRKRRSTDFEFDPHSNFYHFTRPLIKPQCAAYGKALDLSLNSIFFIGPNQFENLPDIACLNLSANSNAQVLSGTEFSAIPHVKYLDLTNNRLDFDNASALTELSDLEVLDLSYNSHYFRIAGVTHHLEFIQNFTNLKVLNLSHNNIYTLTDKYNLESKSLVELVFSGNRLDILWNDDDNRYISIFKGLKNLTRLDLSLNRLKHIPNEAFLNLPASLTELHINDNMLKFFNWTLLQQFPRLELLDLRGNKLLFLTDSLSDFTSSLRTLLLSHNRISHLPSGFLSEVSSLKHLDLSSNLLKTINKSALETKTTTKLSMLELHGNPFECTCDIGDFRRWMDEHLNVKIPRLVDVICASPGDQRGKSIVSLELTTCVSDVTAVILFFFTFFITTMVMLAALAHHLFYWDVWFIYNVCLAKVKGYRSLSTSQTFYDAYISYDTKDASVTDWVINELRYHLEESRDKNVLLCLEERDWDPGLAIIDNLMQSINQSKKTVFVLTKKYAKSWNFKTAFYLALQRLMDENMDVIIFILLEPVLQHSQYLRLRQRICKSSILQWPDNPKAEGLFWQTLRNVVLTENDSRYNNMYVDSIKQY

Row | IC50 (TLR7) | IC50 (TLR8) | Compound
1 | > 150 nM | < 75 nM | C[C@@H]1CN(c2cnc(C#N)c3ncccc23)C[C@H](CNC(=O)[C@]2(F)CCCNC2)O1 (single isomer, unassigned) [Example 339]
2 | 75 to 150 nM | 75 to 150 nM | CN1CC[C@@](F)(CNC(=O)[C@@H]2CN(c3cnc(C#N)c4ncccc34)C[C@H](C(F)(F)F)O2)C1 (single isomer, unassigned) [Example 349]
3 | > 150 nM | > 150 nM | CN1CC[C@@](F)(CNC(=O)[C@H]2CN(c3cnc(C#N)c4ncccc34)C[C@@H](C(F)(F)F)O2)C1 (single isomer, unassigned) [Example 350]
4 | < 75 nM | < 75 nM | CN1CCC(F)(CNC(=O)[C@@H]2CN(c3cnc(C#N)c4ncccc34)C[C@H](C(F)(F)F)O2)CC1 (single isomer, unassigned) [Example 351]
5 | < 75 nM | < 75 nM | CN1CCC(F)(CNC(=O)[C@H]2CN(c3ccc(C#N)c4ncccc34)C[C@@H](C(F)(F)F)O2)CC1 (single isomer, unassigned) [Example 353]
6 | 75 to 150 nM | > 150 nM | CN1CCC(F)(CNC(=O)[C@@H]2CN(c3ccc(C#N)c4ncccc34)C[C@H](C(F)(F)F)O2)CC1 (single isomer, unassigned) [Example 354]
7 | < 75 nM | < 75 nM | CN1CC[C@@](F)(CNC(=O)[C@H]2CN(c3ccc(C#N)c4nccnc34)C[C@@H](C(F)(F)F)O2)C1 (single isomer, unassigned) [Example 355]
8 | < 75 nM | < 75 nM | CN1CC[C@@](F)(CNC(=O)[C@@H]2CN(c3ccc(C#N)c4nccnc34)C[C@H](C(F)(F)F)O2)C1 (single isomer, unassigned) [Example 356]
9 | < 75 nM | < 75 nM | CN1CC[C@](F)(CNC(=O)[C@H]2CN(c3ccc(C#N)c4nccnc34)C[C@@H](C(F)(F)F)O2)C1 (single isomer, unassigned) [Example 357]
10 | < 75 nM | < 75 nM | CN1CC[C@](F)(CNC(=O)[C@@H]2CN(c3ccc(C#N)c4nccnc34)C[C@H](C(F)(F)F)O2)C1 (single isomer, unassigned) [Example 358]
11 | < 75 nM | < 75 nM | CN1CCC(F)(CNC(=O)[C@H]2CN(c3ccc(C#N)c4nccnc34)C[C@@H](C(F)(F)F)O2)CC1 (single isomer, unassigned) [Example 359]
12 | < 75 nM | < 75 nM | CN1CCC(F)(CNC(=O)[C@@H]2CN(c3ccc(C#N)c4nccnc34)C[C@H](C(F)(F)F)O2)CC1 (single isomer, unassigned) [Example 360]
13 | < 75 nM | > 150 nM | N#Cc1ccc(N2C[C@H](CN3CCC4(CC3)CC(=O)N4)O[C@H](C(F)(F)F)C2)c2nccnc12 (single isomer, unassigned) [Example 363]
14 | < 75 nM | > 150 nM | N#Cc1ccc(N2C[C@@H](CN3CCC4(CC3)CC(=O)N4)O[C@@H](C(F)(F)F)C2)c2nccnc12 (single isomer, unassigned) [Example 364]
15 | > 150 nM | < 75 nM | C[C@@H]1CN(c2cnc(C(F)(F)F)c3ncccc23)C[C@H](CNC[C@H]2CN(C)CCO2)O1 (single isomer, unassigned) [Example 385]
16 | > 150 nM | < 75 nM | C[C@@H]1CN(c2cnc(C(F)(F)F)c3ncccc23)C[C@H](CNC[C@@H]2CN(C)CCO2)O1 (single isomer, unassigned) [Example 386]
17 | < 75 nM | < 75 nM | C[C@H]1C[C@@H](OCCN2CCCCC2)CN(c2ccc(C#N)c3nccnc23)C1 [Example 5, 8-[(3S,5R)-3-methyl-5-[2-(piperidin-1-yl)ethoxy]piperidin-1-yl]quinoxaline-5-carbonitrile]
18 | < 75 nM | < 75 nM | C[C@H]1C[C@@H](N)CN(c2cnc(C(F)(F)F)c3ncccc23)C1 [Example 7, (3R,5S)-5-Methyl-1-(8-trifluoromethyl-[1,7]naphthyridin-5-yl)-piperidin-3-ylamine hydrochloride]
19 | < 75 nM | < 75 nM | C[C@H]1C[C@@H](N)CN(c2cnc(C#N)c3ncccc23)C1 [Example 8, 5-((3R,5S)-3-Amino-5-methyl-piperidin-1-yl)-[1,7]naphthyridine-8-carbonitrile hydrochloride]
20 | < 75 nM | 75 to 150 nM | N#Cc1ncc(N2C[C@H](N)C[C@H](C(F)(F)F)C2)c2cccnc12 [Example 9, 5-((3R,5S)-3-Amino-5-trifluoromethyl-piperidin-1-yl)-[1,7]naphthyridine-8-carbonitrile]
21 | > 150 nM | > 150 nM | CCOc1ncc(N2C[C@H](N)C[C@H](C(F)(F)F)C2)c2cccnc12 [Example 10, (3R,5S)-1-(8-Ethoxy-[1,7]naphthyridin-5-yl)-5-trifluoromethyl-piperidin-3-ylamine]
22 | > 150 nM | > 150 nM | C[C@H]1C[C@@H](NCC2(O)CCOCC2)CN(c2cnc(C(F)(F)F)c3ncccc23)C1 [Example 11, 4-{[(3R,5S)-5-Methyl-1-(8-trifluoromethyl-[1,7]naphthyridin-5-yl)-piperidin-3-ylamino]-methyl}-tetrahydro-pyran-4-ol]

Row | Compound | IC50 (TLR7) | IC50 (TLR8)
23 | C[C@@H]1CN(c2ccc(C#N)c3nccnc23)C[C@H](CNC(=O)[C@@H](C)O)O1 (single isomer, unassigned) [Example 340] | > 150 nM | < 75 nM
24 | C[C@@H]1CN(c2ccc(C#N)c3nccnc23)C[C@H](CNC(=O)[C@H](C)O)O1 (single isomer, unassigned) [Example 341] | > 150 nM | < 75 nM
25 | C[C@@H]1CN(c2ccc(C#N)c3ncncc23)C[C@H](CNC(=O)[C@@]2(F)CCNC2)O1 (single isomer, unassigned) [Example 344] | < 75 nM | < 75 nM
26 | C[C@@H]1CN(c2ccc(C#N)c3ncncc23)C[C@H](CNC(=O)[C@]2(F)CCNC2)O1 (single isomer, unassigned) [Example 345] | < 75 nM | < 75 nM
27 | N#Cc1ccc(N2C[C@H](CN3CC(O)C3)O[C@H](C(F)(F)F)C2)c2nccnc12 (single isomer, unassigned) [Example 361] | < 75 nM | 75 to 150 nM
28 | N#Cc1ccc(N2C[C@@H](CN3CC(O)C3)O[C@@H](C(F)(F)F)C2)c2nccnc12 (single isomer, unassigned) [Example 362] | < 75 nM | > 150 nM
29 | CCN(CC)CCO[C@@H]1C[C@H](C)CN(c2ccc(C#N)c3nccnc23)C1 [Example 6, 8-[(3R,5S)-3-[2-(diethylamino)ethoxy]-5-methylpiperidin-1-yl]quinoxaline-5-carbonitrile] | < 75 nM | < 75 nM
